# Assay results as given in US4071411A, “Antitumor antibiotics aclacinomycins A and B [RD-9187A]” (priority 1974, dated 1978).
# “Also recorded” adds a separate entry of the source.
# Columns and labels:
# [1] = tested on: B. cereus ATCC 9634; assay: antimicrobial spectrum, broth dilution method; format: cell-based; conditions: Bacillus cereus, ATCC9634, read-out: Minimum Inhibitory Concentration
# Procedure: (§1) 1. The antimicrobial spectrum of aclacinomycins A and B was determined by the broth dilution method as follows: […]
# [2] = tested on: B. megaterium; assay: antimicrobial spectrum, broth dilution method; format: cell-based; conditions: Priestia megaterium, read-out: Minimum Inhibitory Concentration
# Procedure: as §1
# [3] = tested on: Bacillus subtilis ATCC 6633; assay: antimicrobial spectrum, broth dilution method; format: cell-based; conditions: ATCC6633, read-out: Minimum Inhibitory Concentration
# Procedure: as §1
# [4] = tested on: Can tropicalis IAM 4924; assay: antimicrobial spectrum, broth dilution method; format: cell-based; conditions: read-out: Minimum Inhibitory Concentration
# Procedure: as §1
# [5] = tested on: Can. albicans IAM 4905; assay: antimicrobial spectrum, broth dilution method; format: cell-based; conditions: Candida albicans, IAM4905, read-out: Minimum Inhibitory Concentration
# Procedure: as §1
# [6] = tested on: Cory. bovis 1810; assay: antimicrobial spectrum, broth dilution method; format: cell-based; conditions: Corynebacterium bovis, 1810, read-out: Minimum Inhibitory Concentration
# Procedure: as §1
# [7] = tested on: Diplo. pneumoniae Type 1; assay: antimicrobial spectrum, broth dilution method; format: cell-based; conditions: Streptococcus pneumoniae, TYPE1, read-out: Minimum Inhibitory Concentration
# Procedure: as §1
# [8] = tested on: Diplo. pneumoniae Type 3; assay: antimicrobial spectrum, broth dilution method; format: cell-based; conditions: Streptococcus pneumoniae, TYPE3, read-out: Minimum Inhibitory Concentration
# Procedure: as §1
# [9] = tested on: E. coli K12; assay: antimicrobial spectrum, broth dilution method; format: cell-based; conditions: Escherichia coli, K12, read-out: Minimum Inhibitory Concentration
# Procedure: as §1
# [10] = tested on: Kl. pneumoniae ATCC 10031; assay: antimicrobial spectrum, broth dilution method; format: cell-based; conditions: Klebsiella pneumoniae, ATCC10031, read-out: Minimum Inhibitory Concentration
# Procedure: as §1
# [11] = tested on: Mic. flavus; assay: antimicrobial spectrum, broth dilution method; format: cell-based; conditions: Micrococcus flavus, read-out: Minimum Inhibitory Concentration
# Procedure: as §1
# [12] = tested on: Mycobact. smegmatis ATCC 607; assay: antimicrobial spectrum, broth dilution method; format: cell-based; conditions: read-out: Minimum Inhibitory Concentration
# Procedure: as §1
# [13] = tested on: Ps. aeruginosa A20229; assay: antimicrobial spectrum, broth dilution method; format: cell-based; conditions: Pseudomonas aeruginosa, A20229, read-out: Minimum Inhibitory Concentration
# Procedure: as §1
# [14] = tested on: Sar. lutea ATCC 9341; assay: antimicrobial spectrum, broth dilution method; format: cell-based; conditions: Micrococcus luteus, ATCC9341, read-out: Minimum Inhibitory Concentration
# Procedure: as §1
# [15] = tested on: St. pyogenes NY 5; assay: antimicrobial spectrum, broth dilution method; format: cell-based; conditions: Streptococcus pyogenes, NY5, read-out: Minimum Inhibitory Concentration
# Procedure: as §1
# [16] = tested on: Staph. aureus FDA 209P; assay: antimicrobial spectrum, broth dilution method; format: cell-based; conditions: Staphylococcus aureus, FDA209P, read-out: Minimum Inhibitory Concentration
# Procedure: as §1
# [17] = tested on: Staph. aureus Smith; assay: antimicrobial spectrum, broth dilution method; format: cell-based; conditions: Staphylococcus aureus, read-out: Minimum Inhibitory Concentration
# Procedure: as §1
# [18] = tested on: Strept. faecalis; assay: antimicrobial spectrum, broth dilution method; format: cell-based; conditions: Enterococcus faecalis, read-out: Minimum Inhibitory Concentration
# Procedure: as §1
# [19] = tested on: Gram-positive bacteria and yeasts; assay: antimicrobial activity (summary in words); format: cell-based
# [20] = tested on: P388 cells or L1210 cells; assay: survival of BDF1 mice inoculated with P388 or L1210 cells; format: in vivo; conditions: for T/C / 30 day survivors / Mean survival time: daily for 10 days; for 30 day survivors: control 0/8; for Mean survival time: control 10.0
# Procedure: 2. […] For example, when BDF1 mice weighing 18 to 22 grams are inoculated with 1 × 10^6 cells of P388 cells or 5 × 10^5 cells of L1210 cells intraperitoneally and aclacinomycin A and B and aclacinomycin A-DNA complex are administered intraperitoneally once daily for 10 days consecutively 24 hours after the inoculation, the survival time of the mice is prolonged remarkably at the rate of over 150% in a dosage range of 0.5 to 5 mg./kg. of body weight per day compared with control mice receiving no antibiotic, as shown in the following table: […]
# [21] = acute toxicity, single injection; format: in vivo, Mouse; conditions: mouse, in vivo, single injection
# [22] = tested on: Mouse; assay: acute toxicity, single injection; format: in vivo; conditions: mice
# [23] = acute toxicity, single injection; format: in vivo, Rat; conditions: rat, in vivo, single injection
# [24] = tested on: Rat; assay: acute toxicity, single injection; format: in vivo; conditions: rats
# [25] = tested on: rabbits; assay: lethal dose (LD50) on rabbits; format: in vivo
# [26] = tested on: hamsters; assay: acute cardiac alterations in the electrocardiograms of hamsters / cardiotoxicity; conditions: hamster, in vivo
# [27] = tested on: L1210 cells; assay: cells; format: cell-based, mice; conditions: 3 days
# [28] = tested on: DNA synthesis (L1210 cells); assay: cells; format: cell-based, mice; conditions: Mus musculus, L1210, 1 h; 14C-precursor incorporation, 37° C., 60 min.; read-out: ID50, DNA synthesis
# [29] = tested on: RNA synthesis (L1210 cells); assay: cells; format: cell-based, mice
# [30] = tested on: Vaccinia virus; assay: microbe, parasite or virus in culture; format: cell-based
# [31] = tested on: nucleic acid biosynthesis (L1210 cells); format: cell-based, mice; conditions: below 1 mcg./ml. in the medium, 60 min.
# [32] = tested on: leukemia L1210; assay: leukemia L1210 in mice (summary in words); format: in vivo
# [33] = tested on: leukemia P388; assay: leukemia P388 in mice (summary in words); format: in vivo
# [34] = basicity and lipophilicity
compound,measurement,setting,value
CCC1(O)CC(OC2CC(N(C)C)C(OC3CC4OC5CC(=O)C(C)OC5OC4C(C)O3)C(C)O2)c2c(cc3c(c2O)C(=O)c2c(O)cccc2C3=O)C1C(=O)OC (stereo not drawn) [Aclacinomycin B],MIC,[1],< 0.2 mg/L
same,MIC,[2],< 0.2 mg/L
same,MIC,[3],< 0.2 mg/L
same,MIC,[4],20 mg/L
same,MIC,[5],10 mg/L
same,MIC,[6],< 0.2 mg/L
same,MIC,[7],0.63 mg/L
same,MIC,[8],0.63 mg/L
same,MIC,[9],> 100 mg/L
same,MIC,[10],> 100 mg/L
same,MIC,[11],< 0.2 mg/L
same,MIC,[12],5 mg/L
same,MIC,[13],> 100 mg/L
same,MIC,[14],< 0.2 mg/L
same,MIC,[15],1.25 mg/L
same,MIC,[16],< 0.2 mg/L
same,MIC,[17],< 0.2 mg/L
same,MIC,[18],2.5 mg/L
same,antimicrobial activity,[19],effective in inhibiting the growth; also recorded: strong antimicrobial activity
same,T/C,[20]; 0.5 mg./kg./day i.p.,147%
same,30 day survivors,[20]; 0.5 mg./kg./day i.p.,0/4
same,Mean survival time,[20]; 0.5 mg./kg./day i.p.,14.7 days
same,T/C,[20]; 1.0 mg./kg./day i.p.,190%
same,30 day survivors,[20]; 1.0 mg./kg./day i.p.,1/4
same,Mean survival time,[20]; 1.0 mg./kg./day i.p.,19.0 days
same,T/C,[20]; 2.0 mg./kg./day i.p.,175%
same,30 day survivors,[20]; 2.0 mg./kg./day i.p.,0/4
same,Mean survival time,[20]; 2.0 mg./kg./day i.p.,17.5 days
same,T/C,[20]; 4.0 mg./kg./day i.p.,85%
same,30 day survivors,[20]; 4.0 mg./kg./day i.p.,0/4
same,Mean survival time,[20]; 4.0 mg./kg./day i.p.,8.5 days
same,"survival time prolonged, rate compared with control mice","[20]; dosage range 0.5 to 5 mg./kg. per day, i.p. daily for 10 days",over 150%
same,LD50,"[21]; ip, intraperitoneal",13.7 mg/kg
same,LD50,[21]; intravenous,16.4 mg/kg
same,"lethal dose (LD50), in words",[22],high lethal dose
same,LD50,"[23]; ip, intraperitoneal",10 to 15 mg/kg
same,LD50,[23]; intravenous,15 mg/kg
same,"lethal dose (LD50), in words",[24],high lethal dose
same,"lethal dose (LD50), in words",[25],high lethal dose
same,cardiotoxicity on hamsters,[26],extremely low cardiotoxicity
same,IC50,"[27]; Mus musculus, L1210, 72 h, 37° C., read-out: ID50, growth",0.24 mg/L
same,inhibition of cell growth,[27]; below 1 mcg./ml. in the medium,over 50%
same,IC50,[28],4 mg/L
same,inhibition of RNA synthesis (in words),[29],specific inhibition on RNA synthesis
same,IC50,"[29]; Mus musculus, L1210, 1 h, 14C-precursor incorporation, 37° C., 60 min., read-out: ID50, RNA synthesis",0.2 mg/L
same,inhibition of growth of vaccinia virus (in words),[30],effective in inhibiting the growth
same,IC50,"[30]; Orthopoxvirus vaccinia, HeLa, read-out: ID50, Vaccinia virus",< 10 mg/L
same,inhibition of nucleic acid biosynthesis,[31],over 50%
same,inhibition of growth of leukemia L1210,[32],effective in inhibiting the growth
same,"life prolongation, mice inoculated with leukemia L1210",[32],markedly prolong the lives
same,inhibition of growth of leukemia P388,[33],effective in inhibiting the growth
same,"life prolongation, mice inoculated with leukemia P388",[33],markedly prolong the lives
same,basicity,[34],weakly basic
same,lipophilicity,[34],lipophilic
